Test results as given in US20170008921A1, “C-3 NOVEL TRITERPENONE WITH C-28 REVERSE AMIDE DERIVATIVES AS HIV INHIBITORS” (HETERO RESEARCH FOUNDATION, priority 2015, published 2017).
pIC50: −log10 of the molar value. Like-named read-outs stand apart in the source and are kept apart here.

Legend:
[1] = Cyto-toxicity (MTT assay); format: cell-based
[2] = Single dose oral pharmacokinetic study; format: in vivo; details: mouse, Mice oral PK @30 mg/kg, plasma, vehicle 10% Solutol+20% PEG; for AUC(0-t): read-out: AUC0-t; for Cmax: read-out: Cmax
Outline: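 Rats or mice dosed orally at 30 mg/kg in 10% Solutol+20% PEG. Acetonitrile precipitation, then LC-MS/MS quantification for PK parameters.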

[3] = test system: cells; experiment: Cyto-toxicity (MTT assay); format: cell-based
[4] = test system: HIV-1 strain 92HT599; experiment: Antiviral activity against HIV-1 strain 92HT599 in MT2 cells (p24 estimation); format: cell-based; details: HIV-1 92HT599, ~96 hours
Description: MT2 cells were infected with HIV-1 strain 92HT599 (10 TCID 50/30000 cells). The infected cells were plated at the concentration of ˜30,000 cells per well in 96 well plate. Test compound was added to the micro plate in defined format with the final concentration of DMSO (vehicle) is not more than 1%. Incubation was carried out in CO2 incubator for ˜96 hours for viral infection. At the end of incubation period an aliquot from each well was taken for p24 estimation. The quantitation of p24 is an index for antiviral activity of the compound. Percent inhibition was calculated with reference to control values (vehicle controls). p24 estimation was carried out using Advance biosciences kit as per the procedure detailed by supplier.

[5] = 0% serum binding assay, read-out: IC50 0% serum
[6] = 40% serum binding assay, read-out: IC50 40% serum

| Structure (SMILES) | viability at 4 days, 0.001 µM [1] | viability at 4 days, 0.003 µM [1] | viability at 4 days, 0.01 µM [1] | AUC(0-t) [2] | Cmax [2] | viability at 4 days, 0.1 µM [1] | viability at 4 days, 1 µM [1] | Cytotoxicity % viability ([3]; 0.01 µM) | Cytotoxicity % viability ([3]; 0.1 µM) | Cytotoxicity % viability ([3]; 1 µM) | pIC50 [4, 5] | pIC50 [4, 6] |
| --- | --- | --- | --- | --- | --- | --- | --- | --- | --- | --- | --- | --- |
| CC(C)C1=C2[C@H]3CC[C@@H]4[C@@]5(C)CC[C@H](OC(=O)[C@H]6C[C@@H](C(=O)O)C6(C)C)C(C)(C)[C@@H]5CC[C@@]4(C)[C@]3(C)CC[C@@]2(NC(=O)C(C)(C)NC(=O)c2ccc(S(C)(=O)=O)cc2)CC1=O [Example 51, (1R,3S)-3-((((3aR,5aR,5bR,7aR,9S,11aR,11bR,13aS)-1-isopropyl-5a,5b,8,8,11a-pentamethyl-3a-(2-methyl-2-(4-(methylsulfonyl)benzamido)propanamido)-2-oxo-3,3a,4,5,5a,5b,6,7,7a,8,9,10,11,11a,11b,12,13,13a-octadecahydro-2H-cyclopenta[a]chrysen-9-yl)oxy)carbonyl)-2,2-dimethylcyclobutane-1-carboxylic acid] | 86% | 85% | 37% | 277 µg·h/mL | 32300 ng/mL |  |  |  |  |  |  |  |
| CC(C)C1=C2[C@H]3CC[C@@H]4[C@@]5(C)CC[C@H](OC(=O)[C@H]6C[C@@H](C(=O)O)C6(C)C)C(C)(C)[C@@H]5CC[C@@]4(C)[C@]3(C)CC[C@@]2(NC(=O)C(C)(C)NC(=O)CN(C)C)CC1=O [Example 59, (1R,3S)-3-((((3aR,5aR,5bR,7aR,9S,11aR,11bR,13aS)-3a-(2-(2-(dimethylamino)acetamido)-2-methylpropanamido)-1-isopropyl-5a,5b,8,8,11a-pentamethyl-2-oxo-3,3a,4,5,5a,5b,6,7,7a,8,9,10,11,11a,11b,12,13,13a-octadecahydro-2H-cyclopenta[a]chrysen-9-yl)oxy)carbonyl)-2,2-dimethylcyclobutane-1-carboxylic acid] |  |  | 94% | 186 µg·h/mL | 13900 ng/mL | 15% | 8% |  |  |  |  |  |
| Cc1cccc(C(=O)NC(C)(C)C(=O)N[C@@]23CC[C@]4(C)[C@H](CC[C@@H]5[C@@]6(C)CC[C@H](OC(=O)[C@H]7C[C@@H](C(=O)O)C7(C)C)C(C)(C)[C@@H]6CC[C@]54C)C2=C(C(C)C)C(=O)C3)n1 [Example 60, (1R,3S)-3-((((3aR,5aR,5bR,7aR,9S,11aR,11bR,13aS)-1-isopropyl-5a,5b,8,8,11a-pentamethyl-3a-(2-methyl-2-(6-methylpicolinamido)propanamido)-2-oxo-3,3a,4,5,5a,5b,6,7,7a,8,9,10,11,11a,11b,12,13,13a-octadecahydro-2H-cyclopenta[a]chrysen-9-yl)oxy)carbonyl)-2,2-dimethylcyclobutane-1-carboxylic acid] |  |  | 77% | 217 µg·h/mL | 20200 ng/mL | 27% | 2% |  |  |  |  |  |
| Cc1ccc(C(=O)NC(C)(C)C(=O)N[C@@]23CC[C@]4(C)[C@H](CC[C@@H]5[C@@]6(C)CC[C@H](OC(=O)[C@H]7C[C@@H](C(=O)O)C7(C)C)C(C)(C)[C@@H]6CC[C@]54C)C2=C(C(C)C)C(=O)C3)cn1 [Example 61, (1R,3S)-3-((((3aR,5aR,5bR,7aR,9S,11aR,11bR,13aS)-1-isopropyl-5a,5b,8,8,11a-pentamethyl-3a-(2-methyl-2-(6-methylnicotinamido)propanamido)-2-oxo-3,3a,4,5,5a,5b,6,7,7a,8,9,10,11,11a,11b,12,13,13a-octadecahydro-2H-cyclopenta[a]chrysen-9-yl)oxy)carbonyl)-2,2-dimethylcyclobutane-1-carboxylic acid] |  |  | 88% | 615 µg·h/mL | 45700 ng/mL | 42% | 2% |  |  |  |  |  |
| CCOC(=O)NC(C)(C)C(=O)N[C@@]12CC[C@]3(C)[C@H](CC[C@@H]4[C@@]5(C)CC[C@H](OC(=O)[C@H]6C[C@@H](C(=O)O)C6(C)C)C(C)(C)[C@@H]5CC[C@]43C)C1=C(C(C)C)C(=O)C2 [Example 64, (1R,3S)-3-((((3aR,5aR,5bR,7aR,9S,11aR,11bR,13aS)-3a-(2-((ethoxycarbonyl)amino)-2-methylpropanamido)-1-isopropyl-5a,5b. 8,8,11a-pentamethyl-2-oxo-3,3a,4,5,5a,5b,6,7,7a,8,9,10,11,11a,11b,12,13,13a-octadecahydro-2H-cyclopenta[a]chrysen-9-yl)oxy)carbonyl)-2,2-dimethylcyclobutane-1-carboxylic acid] |  |  | 26% | 336 µg·h/mL | 27400 ng/mL | 2% | 1% |  |  |  |  |  |
| CC(C)C1=C2[C@H]3CC[C@@H]4[C@@]5(C)CC[C@H](OC(=O)[C@H]6C[C@@H](C(=O)O)C6(C)C)C(C)(C)[C@@H]5CC[C@@]4(C)[C@]3(C)CC[C@@]2(NC(=O)C(C)(C)NCc2ccccn2)CC1=O [Example 67, (1R,3S)-3-((((3aR,5aR,5bR,7aR,9S,11aR,11bR,13aS)-1-isopropyl-5a,5b,8,8,11a-pentamethyl-3a-(2-methyl-2-((pyridin-2-ylmethyl)amino)propan amido)-2-oxo-3,3a,4,5,5a,5b,6,7,7a,8,9,10,11,11a,11b,12,13,13a-octadecahydro-2H-cyclopenta[a]chrysen-9-yl)oxy)carbonyl)-2,2-dimethylcyclobutane-1-carboxylic acid] |  |  | 59% | 86.6 µg·h/mL | 24300 ng/mL | 21% | 3% |  |  |  |  |  |
| Cc1ccc(NC(=O)NC(C)(C)C(=O)N[C@@]23CC[C@]4(C)[C@H](CC[C@@H]5[C@@]6(C)CC[C@H](OC(=O)[C@H]7C[C@@H](C(=O)O)C7(C)C)C(C)(C)[C@@H]6CC[C@]54C)C2=C(C(C)C)C(=O)C3)cn1 [Example 71, (1R,3S)-3-((((3aR,5aR,5bR,7aR,9S,11aR,11bR,13aS)-1-isopropyl-5a,5b,8,811a-pentamethyl-3a-(2-methyl-2-(3-(6-methylpyridin-3-yl)ureido)propanamido)-2-oxo-3,3a,4,5,5a,5b,6,7,7a,8,9,10,11,11a,11b,12,13,13a-octadecahydro-2H-cyclopenta[a]chrysen-9-yl)oxy)carbonyl)-2,2-dimethylcyclobutane-1-carboxylic acid] |  |  | 41% | 130 µg·h/mL | 19300 ng/mL | 5% | 3% |  |  |  |  |  |
| Cc1cccc(NC(=O)NC(C)(C)C(=O)N[C@@]23CC[C@]4(C)[C@H](CC[C@@H]5[C@@]6(C)CC[C@H](OC(=O)[C@H]7C[C@@H](C(=O)O)C7(C)C)C(C)(C)[C@@H]6CC[C@]54C)C2=C(C(C)C)C(=O)C3)n1 [Example 72, (1R,3S)-3-((((3aR,5aR,5bR,7aR,9S,11aR,11bR,13aS)-1-isopropyl-5a,5b,8,8,11a-pentamethyl-3a-(2-methyl-2-(3-(6-methylpyridin-2-yl)ureido)propanamido)-2-oxo-3,3a,4,5,5a,5b,6,7,7a,8,9,10,11,11a,11b,12,13,13a-octadecahydro-2H-cyclopenta[a]chrysen-9-yl)oxy)carbonyl)-2,2-dimethylcyclobutane-1-carboxylic acid] | 98% | 84% | 27% | 192 µg·h/mL | 15300 ng/mL |  |  |  |  |  |  |  |
| CC(C)C1=C2[C@H]3CC[C@@H]4[C@@]5(C)CC[C@H](OC(=O)[C@H]6C[C@@H](C(=O)O)C6(C)C)C(C)(C)[C@@H]5CC[C@@]4(C)[C@]3(C)CC[C@@]2(NC(=O)C(C)(C)N)CC1=O.Cl [Example 74, (1R,3S)-3-((((3aR,5aR,5bR,7aR,9S,11aR,11bR,13aS)-3a-(2-amino-2-methylpropanamido)-1-isopropyl-5a,5b,8,8,11a-pentamethyl-2-oxo-3,3a,4,5,5a,5b, 6,7,7a,8,9,10,1111a,11b,12,13,13a-octadecahydro-2H-cyclopenta[a]chrysen-9-yl)oxy)carbonyl)-2,2-dimethylcyclobutane-1-carboxylic acid hydrochloride] |  |  |  |  |  |  |  | 61% | 14% | 19% | > 8.52 | > 7.30 |
| CC(C)C1=C2[C@H]3CC[C@@H]4[C@@]5(C)CC[C@H](OC(=O)[C@H]6C[C@@H](C(=O)O)C6(C)C)C(C)(C)[C@@H]5CC[C@@]4(C)[C@]3(C)CC[C@@]2(NC(=O)C(C)(C)NC(=O)[C@@H]2CCCN2)CC1=O.Cl [Example 76, (1R,3S)-3-((((3aR,5aR,5bR,7aR,9S,11aR,11bR,13aS)-1-isopropyl-5a,5b,8,8,11a-pentamethyl-3a-(2-methyl-2-((S)-pyrrolidine-2-carboxamido)propanamido)-2-oxo-3,3a,4,5,5a,5b,6,77a,8,9,10,11,11a,11b,12,13,13a-octadecahydro-2H-cyclopenta[a]chrysen-9-yl)oxy)carbonyl)-2,2-dimethylcyclobutane-1-carboxylic acid hydrochloride] |  |  |  |  |  |  |  | 59% | 6% | 6% | > 8.52 | 6.70 to 7.30 |
